Columns and labels:
IDE = biological target: T1, IDE (Homo sapiens, UniProt P14735); test: FAβB (amyloid-β) degradation assay; format: biochemical; conditions: 20 µM compound
T1 construct: made in house; host or cells: E. coli BL21
T1 sequence (P14735 1-1019): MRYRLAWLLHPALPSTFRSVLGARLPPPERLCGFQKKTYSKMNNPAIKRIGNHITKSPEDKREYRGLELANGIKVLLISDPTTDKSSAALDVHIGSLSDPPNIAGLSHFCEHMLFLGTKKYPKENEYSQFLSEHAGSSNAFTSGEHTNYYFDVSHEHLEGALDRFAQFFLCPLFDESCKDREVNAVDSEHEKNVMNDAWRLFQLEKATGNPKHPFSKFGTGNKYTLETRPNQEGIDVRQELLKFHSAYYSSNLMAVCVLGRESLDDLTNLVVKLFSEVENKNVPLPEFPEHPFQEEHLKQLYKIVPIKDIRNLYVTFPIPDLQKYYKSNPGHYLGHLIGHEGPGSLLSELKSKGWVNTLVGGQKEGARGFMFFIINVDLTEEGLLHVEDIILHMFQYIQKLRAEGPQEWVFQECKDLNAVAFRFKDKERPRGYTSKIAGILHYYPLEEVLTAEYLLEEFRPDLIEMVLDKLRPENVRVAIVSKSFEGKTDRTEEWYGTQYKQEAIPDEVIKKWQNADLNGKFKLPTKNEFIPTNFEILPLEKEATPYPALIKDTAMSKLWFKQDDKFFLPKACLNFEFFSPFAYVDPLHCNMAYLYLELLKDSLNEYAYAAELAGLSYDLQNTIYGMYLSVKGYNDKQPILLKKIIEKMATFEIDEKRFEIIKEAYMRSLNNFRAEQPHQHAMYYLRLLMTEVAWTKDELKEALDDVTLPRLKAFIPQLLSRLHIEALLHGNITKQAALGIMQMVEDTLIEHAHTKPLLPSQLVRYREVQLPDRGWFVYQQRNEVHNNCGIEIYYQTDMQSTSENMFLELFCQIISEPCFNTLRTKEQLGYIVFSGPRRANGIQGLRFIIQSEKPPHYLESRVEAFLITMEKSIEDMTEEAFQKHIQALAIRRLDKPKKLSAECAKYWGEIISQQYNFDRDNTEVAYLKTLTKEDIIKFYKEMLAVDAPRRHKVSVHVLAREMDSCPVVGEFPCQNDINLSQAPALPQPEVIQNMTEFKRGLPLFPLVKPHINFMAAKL
Protocol: The 10 compounds given in Table 1 were subjected to further characterization and their effect was measured on the proteolytic activity of IDE using different substrates. Initially, activity assays were carried out at fixed 20 µM concentrations for all molecules to identify the effect of those compounds on IDE activity. IDE activity was quantified by monitoring the change in fluorescence for the proteolysis of fluorogenic-substrate V, FITC- insulin-bound antibody, and FAβB by recombinant human IDE purified from E.coli BL21 [6], [18], [19]. […] Also, D6 increased the amyloid-β degradation by 20% (Fig. S1C). Further, D10 enhanced IDE-mediated FITC-insulin-mAb and substrate V degradation by 290% and 65%, respectively (Fig. S1A, B). Next, an EC50 value of each molecule that enhanced IDE activity was determined with a dose response assay, where specific activity of IDE was measured with different concentrations of the lead compounds and then the plot was fit to Sigmoidal Hill-4 parameter equation. […] EC50 value for D3 on insulin degradation was approximately measured as 20 µM (Fig. S2C), whereas EC50 value for D6 on amyloid-β degradation was 2 µM (Fig. S2D). […] Among all these four compounds, D10 seems to be the potent activator of IDE, when proteolysis of insulin is considered.
This assay was performed as follows: 10 µl of 50 nM of FAβB was dissolved in a buffer which consisted of 50 mM HEPES, 100 mM NaCl, % 0,05 (v/v) bovine serum albumin, at a pH of 7.4. The reaction was initiated in a total volume of 100 µl with 20 µM drugs by adding 20 µl of 0.02 mg/ml of IDE for 2.5 h at 37°C. The reaction was stopped by adding 2 µl of 100 mM of protease inhibitor (1, 10-phenanthroline). Uncleaved FAβB was precipitated with Neutravidin- coated agarose beads by gentle rocking for 30 min. and centrifugation for 10 min at 14000 g. The supernatant was transferred to the black 96 well plates and increase in fluorescence (488 excitation, 525 emission) was measured with a multi-label plate reader.
The effect of the lead compounds on the initial rate of proteolysis of IDE was determined by measurement in fluorescence with time both in the presence and absence of the lead compounds. The kinetic data for IDE-mediated insulin, substrate V and amyloid-β degradation were plotted and fitted using SigmaPlot software (Sigmoidal, Hill, 4 parameter). For the initial rate calculations, kinetic data were fitted using SigmaPlot software (Hyperbola; Single Rectangular I, 3 Parameter).

HeLa cells = test: MTT assay for cell viability; format: cell-based, human; conditions: 24 h; for cytotoxicity at high concentrations: 1 to 100 µM
Description: We characterized the activity of novel compounds in a cellular assay to establish whether there were any cytotoxic effects. We used an established MTT (3-(4,5-dimethylthiazolyl-2)-2, 5-diphenyltetrazolium bromide or thiazolyl blue) method using HELA cells to determine whether the small molecule affects cell viability. In this method, a purple formazan dye forms as a result of the cleavage of the yellow tetrazolium MTT within metabolically active cells. The resulting precipitate of the intracellular formazan can be dissolved in a detergent solution and quantified spectrophotometrically at 595 nm. We measured the cytotoxicity by incubating HELA cells in the presence of novel compounds at concentrations ranging from 1 to 100 µM for 24 h. Cell viability was measured using the MTT method after […] culture. The extent of cell death was expressed relative to a control containing DMSO. […] Therefore, as a next step we tested the effects of lead compounds on insulin catabolism using HeLa cells.
The cytotoxicity assay was performed using human cervical cancer HeLa cells. Cells were cultured at 37°C under a humidified atmosphere of 5% CO2 in medium supplemented with 10% fetal bovine serum and dispersed in replicate 96-well plates with 2.5×10^4 cells/well. Compounds were then added. After 24 hours exposure to the chemical compounds, the cell viability was determined by 3-[4,5-dimethylthiazol-2-yl]-2,5-diphenpyltetrazolium bromide (MTT) assay. The optical density (OD) of the wells was determined using ELISA plate reader at a test wavelength of 600 nm and a reference wavelength of 630 nm. Each measurement was carried out in triplicate.

SMILES | effect on proteolysis activity of IDE for amyloid-β (IDE) | cytotoxicity at high concentrations (HeLa cells) | cell viability (HeLa cells; 7.5 µM) | cell viability (HeLa cells; 100 µM) [%]
COc1ccc(C2C(C(=O)Nc3ccccc3)=C(C)N=c3sc(=Cc4cn(C)nc4C)c(=O)n32)cc1 (stereo not shown) [Compound D3] | did not have any effect | did not demonstrate any toxicity |  | 
Nc1c(C(=O)Nc2ccccc2F)c2ccccn2c1C(=O)c1ccc2c(c1)CCCC2 [Compound D4] | did not have any effect |  | approximately 85% | 60
Cc1nn(-c2ccccc2)c2nc(-c3cccc([N+](=O)[O-])c3)n3c4ccccc4nc3c2c1=O [Compound D10] | did not have any effect | did not demonstrate any toxicity |  | 

Reference: publication PMC3280214, “Structure Based Discovery of Small Molecules to Regulate the Activity of Human Insulin Degrading Enzyme” (PLoS ONE, 2012)
